According to ChEMBL document CHEMBL1152034, “Solid phase synthesis of phosphinic acid endothelin converting enzyme inhibitors” (Bioorg Med Chem Lett, 1996):

Key:
Neprilysin = Neprilysin (Homo sapiens, UniProt P08473); assay: Inhibition of neutral endopeptidase in human umbilical vein endothelial cells; assay type: cell-based, Endothelial cell
[1] = biological target: T1, Endothelin-converting enzyme 1 (Homo sapiens, UniProt P42892); assay: Inhibition of endothelin-converting enzyme in human umbilical vein endothelial cells; assay type: cell-based, Endothelial cell
T1 sequence (P42892 whole entry): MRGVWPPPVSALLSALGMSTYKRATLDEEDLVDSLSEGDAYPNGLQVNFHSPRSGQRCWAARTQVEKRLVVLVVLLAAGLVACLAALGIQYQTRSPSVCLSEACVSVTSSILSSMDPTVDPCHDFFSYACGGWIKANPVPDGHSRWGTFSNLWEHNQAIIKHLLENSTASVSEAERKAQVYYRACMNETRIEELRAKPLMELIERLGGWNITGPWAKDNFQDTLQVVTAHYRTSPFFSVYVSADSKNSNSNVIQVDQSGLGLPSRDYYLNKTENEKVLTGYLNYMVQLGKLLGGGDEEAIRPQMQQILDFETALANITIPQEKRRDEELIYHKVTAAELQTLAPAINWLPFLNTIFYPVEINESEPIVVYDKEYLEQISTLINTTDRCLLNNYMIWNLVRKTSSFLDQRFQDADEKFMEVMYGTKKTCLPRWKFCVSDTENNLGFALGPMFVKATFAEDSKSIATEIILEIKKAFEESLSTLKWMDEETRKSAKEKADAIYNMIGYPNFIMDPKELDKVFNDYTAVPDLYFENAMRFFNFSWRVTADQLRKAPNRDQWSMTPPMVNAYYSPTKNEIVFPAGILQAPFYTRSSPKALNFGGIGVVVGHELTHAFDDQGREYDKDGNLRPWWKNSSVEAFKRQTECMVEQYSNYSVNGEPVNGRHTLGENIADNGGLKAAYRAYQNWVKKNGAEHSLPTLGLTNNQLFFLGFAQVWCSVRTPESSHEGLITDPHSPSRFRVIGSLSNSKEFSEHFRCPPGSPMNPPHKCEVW

Chain of Neprilysin (P08473 whole entry): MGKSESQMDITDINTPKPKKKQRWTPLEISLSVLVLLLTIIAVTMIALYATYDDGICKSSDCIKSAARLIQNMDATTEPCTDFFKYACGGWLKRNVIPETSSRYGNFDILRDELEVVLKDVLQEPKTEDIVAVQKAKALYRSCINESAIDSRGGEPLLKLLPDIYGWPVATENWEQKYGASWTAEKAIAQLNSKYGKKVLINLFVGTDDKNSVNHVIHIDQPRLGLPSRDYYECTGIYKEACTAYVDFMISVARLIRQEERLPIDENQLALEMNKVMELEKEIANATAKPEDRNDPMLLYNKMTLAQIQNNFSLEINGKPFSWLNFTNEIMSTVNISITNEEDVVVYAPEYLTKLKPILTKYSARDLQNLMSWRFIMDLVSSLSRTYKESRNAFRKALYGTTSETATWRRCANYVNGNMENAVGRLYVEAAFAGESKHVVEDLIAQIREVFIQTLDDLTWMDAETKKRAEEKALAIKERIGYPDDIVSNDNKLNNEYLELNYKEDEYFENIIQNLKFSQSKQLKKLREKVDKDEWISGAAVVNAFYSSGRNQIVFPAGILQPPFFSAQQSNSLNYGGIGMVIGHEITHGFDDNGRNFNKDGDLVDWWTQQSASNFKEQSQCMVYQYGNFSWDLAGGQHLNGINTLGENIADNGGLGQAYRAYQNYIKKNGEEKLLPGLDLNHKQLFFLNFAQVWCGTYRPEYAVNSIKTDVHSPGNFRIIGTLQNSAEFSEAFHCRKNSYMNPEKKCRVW

O=C(N[C@@H](Cc1ccccc1)P(=O)(O)CC(Cc1ccccc1)C(=O)NC(Cc1ccc(O)cc1)C(=O)O)OCc1ccccc1 (single isomer, unassigned)
IC50 (Neprilysin): 1 µM
IC50 [1]: 7 µM

CC(C)CC(NC(=O)C(Cc1ccccc1)CP(=O)(O)[C@H](Cc1ccccc1)NC(=O)OCc1ccccc1)C(=O)O (mixture of isomers; form 2)
IC50 [1]: 20 µM

O=C(O)CC(NC(=O)C(Cc1ccccc1)CP(=O)(O)[C@H](Cc1ccccc1)NC(=O)OCc1ccccc1)C(=O)O (mixture of isomers)
IC50 [1]: 30 µM

CCCCC(NC(=O)C(Cc1ccccc1)CP(=O)(O)[C@H](Cc1ccccc1)NC(=O)OCc1ccccc1)C(=O)O (mixture of isomers)
IC50 [1]: 12 µM

O=C(N[C@@H](Cc1ccccc1)P(=O)(O)CC(Cc1ccccc1)C(=O)NC(Cc1c[nH]c2ccccc12)C(=O)O)OCc1ccccc1 (mixture of isomers)
IC50 (Neprilysin): 1.4 µM
IC50 [1]: 1.1 µM

O=C(O)CCNC(=O)C(Cc1ccccc1)CP(=O)(O)[C@H](Cc1ccccc1)NC(=O)OCc1ccccc1 (mixture of isomers)
IC50 (Neprilysin): 2.3 µM
IC50 [1]: 50 µM

C[C@H](O)[C@@H](NC(=O)C(Cc1ccccc1)CP(=O)(O)[C@H](Cc1ccccc1)NC(=O)OCc1ccccc1)C(=O)O (single isomer, unassigned)
IC50 (Neprilysin): 50 µM
IC50 ([1]; endothelial cell): > 100 µM

NCCCCC(NC(=O)C(Cc1ccccc1)CP(=O)(O)[C@H](Cc1ccccc1)NC(=O)OCc1ccccc1)C(=O)O (mixture of isomers)
IC50 (Neprilysin): > 100 µM
IC50 [1]: 30 µM

CC(C)[C@@H](NC(=O)C(Cc1ccccc1)CP(=O)(O)[C@H](Cc1ccccc1)NC(=O)OCc1ccccc1)C(=O)O (stereo in doubt)
IC50 [1]: > 100 µM

CC(O)C(NC(=O)C(Cc1ccccc1)CP(=O)(O)[C@H](Cc1ccccc1)NC(=O)OCc1ccccc1)C(=O)O (mixture of isomers)
IC50 (Neprilysin): 10 µM
IC50 [1]: 5 µM

O=C(O)CCC(NC(=O)C(Cc1ccccc1)CP(=O)(O)[C@H](Cc1ccccc1)NC(=O)OCc1ccccc1)C(=O)O (mixture of isomers)
IC50 [1]: 25 µM

O=C(O)[C@H](Cc1c[nH]c2ccccc12)NC(=O)[C@H](Cc1ccccc1)NP(=O)(O)CCCCc1ccccc1
IC50 [1]: 0.4 µM

CC(NC(=O)C(Cc1ccccc1)CP(=O)(O)[C@H](Cc1ccccc1)NC(=O)OCc1ccccc1)C(=O)O (mixture of isomers)
IC50 (Neprilysin): 0.3 µM
IC50 [1]: 8 µM

O=C(N[C@@H](Cc1ccccc1)P(=O)(O)CC(Cc1ccccc1)C(=O)N[C@H](Cc1ccccc1)C(=O)O)OCc1ccccc1 (stereo partly drawn)
IC50 (Neprilysin): > 60 µM
IC50 [1]: > 100 µM

O=C(O)CC[C@@H](NC(=O)C(Cc1ccccc1)CP(=O)(O)[C@H](Cc1ccccc1)NC(=O)OCc1ccccc1)C(=O)O (mixture of isomers)
IC50 [1]: > 100 µM

CC(C)[C@@H](NC(=O)C(Cc1ccccc1)CP(=O)(O)[C@H](Cc1ccccc1)NC(=O)OCc1ccccc1)C(=O)O (mixture of isomers)
IC50 [1]: 60 µM

NC(=O)CCC(NC(=O)C(Cc1ccccc1)CP(=O)(O)[C@H](Cc1ccccc1)NC(=O)OCc1ccccc1)C(=O)O (mixture of isomers)
IC50 (Neprilysin): 15 µM
IC50 [1]: 6 µM

C[C@H](O)[C@@H](NC(=O)C(Cc1ccccc1)CP(=O)(O)[C@H](Cc1ccccc1)NC(=O)OCc1ccccc1)C(=O)O (stereo in doubt)
IC50 (Neprilysin): > 100 µM
IC50 [1]: > 100 µM

O=C(N[C@@H](Cc1ccccc1)P(=O)(O)CC(Cc1ccccc1)C(=O)NC(Cc1c[nH]c2ccccc12)C(=O)O)OCc1ccccc1 (stereo in doubt)
IC50 (Neprilysin): 10 µM
IC50 [1]: 5.8 µM

CC(C)C(NC(=O)C(Cc1ccccc1)CP(=O)(O)[C@H](Cc1ccccc1)NC(=O)OCc1ccccc1)C(=O)O (mixture of isomers)
IC50 [1]: 1.7 µM

CC(C)CC(NC(=O)C(Cc1ccccc1)CP(=O)(O)[C@H](Cc1ccccc1)NC(=O)OCc1ccccc1)C(=O)O (mixture of isomers; form 1)
IC50 [1]: 23 µM

O=C(N[C@@H](Cc1ccccc1)P(=O)(O)CC(Cc1ccccc1)C(=O)NC(Cc1c[nH]cn1)C(=O)O)OCc1ccccc1 (mixture of isomers)
IC50 (Neprilysin): 10 µM
IC50 [1]: 20 µM

O=C(N[C@@H](Cc1ccccc1)P(=O)(O)CC(Cc1ccccc1)C(=O)NC(Cc1ccc(O)cc1)C(=O)O)OCc1ccccc1 (mixture of isomers)
IC50 (Neprilysin): 2.3 µM
IC50 [1]: 12 µM

CC(C)[C@H](NC(=O)C(Cc1ccccc1)CP(=O)(O)[C@H](Cc1ccccc1)NC(=O)OCc1ccccc1)C(N)=O (stereo partly drawn)
IC50 [1]: 20 µM

N=C(N)NCCCC(NC(=O)C(Cc1ccccc1)CP(=O)(O)[C@H](Cc1ccccc1)NC(=O)OCc1ccccc1)C(=O)O (mixture of isomers)
IC50 (Neprilysin): 0.8 µM
IC50 [1]: 4.3 µM

NC(=O)CCC(NC(=O)C(Cc1ccccc1)CP(=O)(O)[C@H](Cc1ccccc1)NC(=O)OCc1ccccc1)C(=O)O (stereo in doubt)
IC50 (Neprilysin): > 100 µM
IC50 [1]: > 100 µM

NC(=O)CC(NC(=O)C(Cc1ccccc1)CP(=O)(O)[C@H](Cc1ccccc1)NC(=O)OCc1ccccc1)C(=O)O (mixture of isomers)
IC50 (Neprilysin): 10 µM
IC50 [1]: 20 µM

O=C(O)CNC(=O)C(Cc1ccccc1)CP(=O)(O)[C@H](Cc1ccccc1)NC(=O)OCc1ccccc1 (stereo partly drawn)
IC50 (Neprilysin): 0.9 µM
IC50 [1]: 80 µM

CC(C)C(NC(=O)C(Cc1ccccc1)CP(=O)(O)[C@H](Cc1ccccc1)NC(=O)OCc1ccccc1)C(=O)O (stereo in doubt)
IC50 [1]: 80 µM

N=C(N)NCCC[C@@H](NC(=O)C(Cc1ccccc1)CP(=O)(O)[C@H](Cc1ccccc1)NC(=O)OCc1ccccc1)C(=O)O (mixture of isomers)
IC50 (Neprilysin): > 60 µM
IC50 [1]: > 100 µM

CCC(C)C(NC(=O)C(Cc1ccccc1)CP(=O)(O)[C@H](Cc1ccccc1)NC(=O)OCc1ccccc1)C(=O)O (mixture of isomers)
IC50 [1]: 4 µM

NCCCCC(NC(=O)C(Cc1ccccc1)CP(=O)(O)[C@H](Cc1ccccc1)NC(=O)OCc1ccccc1)C(=O)O (stereo in doubt)
IC50 (Neprilysin; endothelial cell): > 100 µM
IC50 [1]: 60 µM

O=C(N[C@@H](Cc1ccccc1)P(=O)(O)CC(Cc1ccccc1)C(=O)NC(Cc1ccccc1)C(=O)O)OCc1ccccc1 (mixture of isomers)
IC50 (Neprilysin): 0.8 µM
IC50 [1]: 10 µM
